Results on seven compounds are retold here after the NIST ThermoML archive (doi:10.1016/j.jct.2006.03.014).

For data set [1] the following is noted: 101 kPa, Liquid; for viscosity: Capillary tube (Ostwald / Ubbelohde) method; for mass density: Pycnometric method.
A short description of data set [2]: refractive index (Na D-line) (dimensionless). The following applies: 298.15 K; 101.33 kPa; Liquid; Standard Abbe refractometry.
Data set [3] can be described thus: xn = mol fraction of the nth substance listed. The following applies: 101 kPa, Liquid, x2 = 0; for viscosity: Capillary tube (Ostwald / Ubbelohde) method; for mass density: Pycnometric method.

± gives the expanded uncertainty stated by the source.

The term viscosity denotes the internal friction of a fluid under shear. As usually defined, the mass density is the mass of a sample divided by its volume. Broadly, the refractive index is the speed of light in vacuum divided by its phase velocity in the sample.

Consider `CC1OC(C)OC(C)O1` (stereo not given) [2,4,6-trimethyl-1,3,5-trioxane], for which the viscosity came out at 1.107 ± 0.015 mPa·s in data set [1] (298.15 K), 1.001 ± 0.014 mPa·s in data set [1] (303.15 K) and 0.907 ± 0.013 mPa·s in data set [1] (308.15 K). For the same compound, the mass density in data set [1] (298.15 K) is on record as 988.4 ± 1.3 kg/m3; in data set [1] (303.15 K) it was 982.6 ± 1.3 kg/m3; in data set [1] (308.15 K) it was 976.4 ± 1.4 kg/m3.
With `CCCCOC(C)=O` [butyl ethanoate], the viscosity in data set [1] (298.15 K) was found to be 0.685 ± 0.01 mPa·s; in data set [1] (303.15 K), 0.636 ± 0.01 mPa·s; in data set [1] (308.15 K), 0.579 ± 0.009 mPa·s. The mass density is 876.4 ± 1.1 kg/m3 in data set [1] (298.15 K), 871.3 ± 1.1 kg/m3 in data set [1] (303.15 K) and 866.2 ± 1.1 kg/m3 in data set [1] (308.15 K). Also, the refractive index in data set [2] worked out at 1.3918 ± 0.0009.
As for `CCCCOC(C)=O` [butyl ethanoate] + CC1OC(C)OC(C)O1, the results for the viscosity in data set [3] (298.15 K), in data set [3] (303.15 K) and in data set [3] (308.15 K) were 0.685 ± 0.01 mPa·s, 0.636 ± 0.01 mPa·s and 0.579 ± 0.009 mPa·s, respectively. Also, the figures for the mass density in data set [3] (298.15 K), in data set [3] (303.15 K) and in data set [3] (308.15 K) were 876.4 ± 1.1 kg/m3, 871.3 ± 1.1 kg/m3 and 866.2 ± 1.1 kg/m3, respectively.
Consider `CCOC(C)=O` [ethyl acetate], for which the viscosity is listed as 0.43 ± 0.008 mPa·s in data set [1] (298.15 K), 0.401 ± 0.008 mPa·s in data set [1] (303.15 K) and 0.387 ± 0.008 mPa·s in data set [1] (308.15 K). In addition, the mass density in data set [1] (298.15 K) was 893.8 ± 1.2 kg/m3; in data set [1] (303.15 K) it was 887.6 ± 1.2 kg/m3; in data set [1] (308.15 K) it was 881.2 ± 1.2 kg/m3. Further, the refractive index in data set [2] was 1.37 ± 0.0009.
With `CCOC(C)=O` [ethyl acetate] + CC1OC(C)OC(C)O1, the figures for the viscosity in data set [3] (298.15 K), in data set [3] (303.15 K) and in data set [3] (308.15 K) were 0.43 ± 0.008 mPa·s, 0.401 ± 0.008 mPa·s and 0.387 ± 0.008 mPa·s, respectively. The results for the mass density in data set [3] (298.15 K), in data set [3] (303.15 K) and in data set [3] (308.15 K) were 893.8 ± 1.2 kg/m3, 887.6 ± 1.2 kg/m3 and 881.2 ± 1.2 kg/m3, respectively.
As for `COC(C)=O` [methyl ethanoate], the viscosity is 0.367 ± 0.008 mPa·s in data set [1] (298.15 K), 0.351 ± 0.007 mPa·s in data set [1] (303.15 K) and 0.338 ± 0.007 mPa·s in data set [1] (308.15 K). Also, the mass density in data set [1] (298.15 K) was 926.7 ± 1.3 kg/m3; in data set [1] (303.15 K), 919.7 ± 1.2 kg/m3; in data set [1] (308.15 K), 916.2 ± 1 kg/m3. Further, in data set [2], the refractive index is given as 1.3585 ± 0.0009.
Take `COC(C)=O` [methyl ethanoate] + CC1OC(C)OC(C)O1: the viscosity is given as 0.367 ± 0.008 mPa·s in data set [3] (298.15 K), 0.351 ± 0.007 mPa·s in data set [3] (303.15 K) and 0.338 ± 0.007 mPa·s in data set [3] (308.15 K). Further, the mass density came to 926.7 ± 1.3 kg/m3 in data set [3] (298.15 K), 919.7 ± 1.2 kg/m3 in data set [3] (303.15 K) and 916.2 ± 1 kg/m3 in data set [3] (308.15 K).
